Several values for one entry are separate records, joined by “and”; a condition that tells them apart may be missing. Equal entries are not always repeated. Toxic doses and inconclusive results are not listed. The calls were made as follows: active = survival T/C of 150% or more; inactive = T/C below 125% in these data.
Tested on: P388 leukemia ip, CD2F1 mice, survival T/C
Experiment: NCI In Vivo Anticancer Drug Screen. Data for tumor model P388 Leukemia (intraperitoneal) in CD2F1 (CDF1) mice
Conditions: endpoint: median survival time, higher = longer survival
Method in brief: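 Mice carrying the transplanted tumor received test compound or vehicle. Survival was recorded in each group, and the value is the treated-group measurement divided by that of the vehicle-treated control group.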

[1] = dose: 50.0 mg/kg/injection, schedule: Q01DX005 (ip), vehicle: saline with Tween-80
[2] = dose: 100.0 mg/kg/injection, schedule: Q01DX005 (ip), vehicle: saline with Tween-80
[3] = dose: 60.0 mg/kg/injection, schedule: Q01DX005 (ip), vehicle: Klucel (hydroxypropylcellulose) (HPC)
[4] = dose: 120.0 mg/kg/injection, schedule: Q01DX005 (ip), vehicle: Klucel (hydroxypropylcellulose) (HPC)
[5] = dose: 50.0 mg/kg/injection, schedule: Q01DX009 (ip), vehicle: saline
[6] = dose: 100.0 mg/kg/injection, schedule: Q01DX009 (ip), vehicle: saline
[7] = dose: 100.0 mg/kg/injection, schedule: Q04DX003 (ip), vehicle: saline
[8] = dose: 200.0 mg/kg/injection, schedule: Q04DX003 (ip), vehicle: saline
[9] = dose: 400.0 mg/kg/injection, schedule: Q04DX003 (ip), vehicle: saline
[10] = dose: 50.0 mg/kg/injection, schedule: Q01DX005 (ip), vehicle: Klucel (hydroxypropylcellulose) (HPC)
[11] = dose: 100.0 mg/kg/injection, schedule: Q01DX005 (ip), vehicle: Klucel (hydroxypropylcellulose) (HPC)
[12] = dose: 200.0 mg/kg/injection, schedule: Q01DX005 (ip), vehicle: Klucel (hydroxypropylcellulose) (HPC)
[13] = dose: 100.0 mg/kg/injection, schedule: Q01DX001 (ip), vehicle: saline
[14] = dose: 200.0 mg/kg/injection, schedule: Q01DX001 (ip), vehicle: saline
[15] = dose: 400.0 mg/kg/injection, schedule: Q01DX001 (ip), vehicle: saline
[16] = dose: 200.0 mg/kg/injection, schedule: Q01DX005 (ip), vehicle: saline with Tween-80
[17] = dose: 60.0 mg/kg/injection, schedule: Q01DX005 (ip), vehicle: saline
[18] = dose: 120.0 mg/kg/injection, schedule: Q01DX005 (ip), vehicle: saline
[19] = dose: 240.0 mg/kg/injection, schedule: Q01DX005 (ip), vehicle: saline

Measured: T/C

Cc1onc(-c2c(Cl)cccc2Cl)c1C(=O)SC1=NC(C)N2C(SC(=O)c3c(-c4c(Cl)cccc4Cl)noc3C)=NC(C)N12 (stereo not given)
inactive: [1] 90 % of control | [2] 87 % of control

CCn1c(=S)[nH]c2sc3c(c2c1=O)CCCCC3
inactive: dose: 120.0 mg/kg/injection, schedule: Q01DX005 (ip), vehicle: saline with Tween-80 89 % of control | dose: 240.0 mg/kg/injection, schedule: Q01DX005 (ip), vehicle: saline with Tween-80 101 % of control

CC(=O)Nc1ccc(S(=O)(=O)Oc2noc3ccc(Cl)cc23)cc1
inactive: dose: 100.0 mg/kg/injection, schedule: Q04DX002 (ip), vehicle: Klucel (hydroxypropylcellulose) (HPC) 98 % of control | dose: 200.0 mg/kg/injection, schedule: Q04DX002 (ip), vehicle: Klucel (hydroxypropylcellulose) (HPC) 98 % of control | dose: 400.0 mg/kg/injection, schedule: Q04DX002 (ip), vehicle: Klucel (hydroxypropylcellulose) (HPC) 93 % of control

CC1=c2c(oc3cc(O)c(Nc4c(C)cc(O)cc4O)c(C)c23)=CC(=O)C1=Nc1c(C)cc(O)cc1O
inactive: [3] 95 % of control | [4] 89 % of control | dose: 240.0 mg/kg/injection, schedule: Q01DX005 (ip), vehicle: Klucel (hydroxypropylcellulose) (HPC) 95 % of control

ClCc1nnn(Cc2ccccc2)c1CCl
inactive: [5] 102 % of control | [6] 89 % of control | dose: 200.0 mg/kg/injection, schedule: Q01DX009 (ip), vehicle: saline 92 % of control

CCC[CH2][Sn]([CH2]CCC)([S]/C(C#N)=N/N=C/c1ccc(N(C)C)cc1)[S]/C(C#N)=N/N=C/c1ccc(N(C)C)cc1
inactive: dose: 7.5 mg/kg/injection, schedule: Q01DX005 (ip), vehicle: saline with Tween-80 117 % of control

CCOC(=O)NC(NC(=O)OCC)c1cccc([N+](=O)[O-])c1
inactive: [7] 91 % of control | [8] 95 % of control | [9] 91 % of control

O=C(Oc1c(Cc2ccccc2)c(=O)[nH]c2ccccc12)c1ccccc1
inactive: [3] 90 % of control | [4] 89 % of control

O=C(O)C12CC3CC(CC(C3)C1)C2.O=C(O)C12CC3CC(CC(C3)C1)C2.O=C(O)C12CC3CC(CC(C3)C1)C2.O=C(O)C12CC3CC(CC(C3)C1)C2.[Rh].[Rh]
inactive: dose: 12.5 mg/kg/injection, schedule: Q01DX009 (ip), vehicle: saline 94 % of control | dose: 25.0 mg/kg/injection, schedule: Q01DX009 (ip), vehicle: saline 91 % of control and 93 % of control | [5] 100 % of control and 88 % of control | dose: 50.0 mg/kg/injection, schedule: Q01DX009 (ip), vehicle: suspension in saline 101 % of control | [6] 91 % of control | dose: 100.0 mg/kg/injection, schedule: Q01DX009 (ip), vehicle: suspension in saline 120 % of control | dose: 200.0 mg/kg/injection, schedule: Q01DX009 (ip), vehicle: suspension in saline 108 % of control

O=C1c2ccccc2C(=O)N1OCc1ccc(-c2ccccc2)cc1
inactive: [10] 96 % of control | [11] 93 % of control

O=c1oc2c(cc1-c1ccccc1)CCc1ccccc1-2
inactive: [10] 102 % of control | [11] 100 % of control | [12] 102 % of control

O=c1oc(-c2ccccc2)nc2c1sc1nc(-c3ccccc3)oc(=O)c12
inactive: dose: 1.56 mg/kg/injection, schedule: Q01DX005 (ip), vehicle: Klucel (hydroxypropylcellulose) (HPC) 93 % of control | dose: 3.12 mg/kg/injection, schedule: Q01DX005 (ip), vehicle: Klucel (hydroxypropylcellulose) (HPC) 101 % of control and 91 % of control and 96 % of control | dose: 6.25 mg/kg/injection, schedule: Q01DX005 (ip), vehicle: Klucel (hydroxypropylcellulose) (HPC) 87 % of control and 88 % of control and 89 % of control | [10] 88 % of control and 92 % of control

C[N+]12CCN(CC1)CC2
inactive: [7] 104 % of control | [8] 95 % of control | [9] 100 % of control

N=c1oc2ccccc2cc1C(=O)NNC(=O)c1ccncc1
inactive: [13] 96 % of control | [14] 96 % of control | [15] 102 % of control

O=C(O)CNC(=O)C1(N2C(=O)c3ccccc3C2=O)CCCC1
inactive: [1] 99 % of control | [2] 101 % of control | [16] 97 % of control

CC1(C)OC2(C)CCC1C1C2N1C(=O)Nc1cccc(Cl)c1 (stereo not given)
inactive: [1] 101 % of control | [2] 92 % of control | [16] 89 % of control

CCN(CC)P(c1ccccc1)N(CC)CC
inactive: [13] 101 % of control | [14] 111 % of control | [15] 104 % of control

CNCCC(Oc1ccccc1OC)c1ccccc1 (stereo not given)
inactive: dose: 12.5 mg/kg/injection, schedule: Q04DX002 (ip), vehicle: saline with Tween-80 106 % of control | dose: 25.0 mg/kg/injection, schedule: Q04DX002 (ip), vehicle: saline with Tween-80 100 % of control | dose: 25.0 mg/kg/injection, schedule: Q04DX002 (ip), vehicle: saline 113 % of control | dose: 50.0 mg/kg/injection, schedule: Q04DX002 (ip), vehicle: saline with Tween-80 99 % of control and 98 % of control | dose: 50.0 mg/kg/injection, schedule: Q04DX002 (ip), vehicle: saline 103 % of control

COC(=O)C1=COC(C)[C@H]2CN3CCc4c([nH]c5cc(OC)ccc45)C3CC12 (stereo not given in full)
inactive: dose: 15.0 mg/kg/injection, schedule: Q01DX005 (ip), vehicle: saline with Tween-80 92 % of control | dose: 30.0 mg/kg/injection, schedule: Q01DX005 (ip), vehicle: saline with Tween-80 91 % of control | dose: 60.0 mg/kg/injection, schedule: Q01DX005 (ip), vehicle: saline with Tween-80 88 % of control

Clc1ccc(C2Oc3ccccc3-c3nc4ncccc4cc32)cc1 (stereo not given)
inactive: dose: 25.0 mg/kg/injection, schedule: Q01DX005 (ip), vehicle: Klucel (hydroxypropylcellulose) (HPC) 86 % of control | [10] 86 % of control | [11] 88 % of control | [12] 91 % of control

CN(C)CCSCC(=O)Nc1ccccc1Cl
inactive: [17] 103 % of control | [18] 106 % of control | [19] 106 % of control

C=Cc1c(C#N)nc(C)c(C)c1-c1ccc(OC)c(OC)c1OCc1ccccc1
inactive: [10] 101 % of control | [11] 95 % of control | [12] 108 % of control

CCCN1CCc2c([nH]c3cc(OC)ccc23)C1C (stereo not given)
inactive: [1] 100 % of control | [2] 108 % of control

O=S(O)CCCCSSCC(O)CO (stereo not given)
inactive: dose: 30.0 mg/kg/injection, schedule: Q01DX005 (ip), vehicle: saline 101 % of control | dose: 50.0 mg/kg/injection, schedule: Q01DX005 (ip), vehicle: saline 111 % of control | [17] 115 % of control | [18] 115 % of control | dose: 200.0 mg/kg/injection, schedule: Q01DX005 (ip), vehicle: saline 111 % of control | [19] 117 % of control

O=C(NC1CC(c2ccccc2)(c2ccccc2)OC1=O)OCc1ccccc1 (stereo not given)
inactive: dose: 12.5 mg/kg/injection, schedule: Q01DX009 (ip), vehicle: saline with Tween-80 90 % of control | dose: 25.0 mg/kg/injection, schedule: Q01DX009 (ip), vehicle: saline with Tween-80 93 % of control | dose: 50.0 mg/kg/injection, schedule: Q01DX009 (ip), vehicle: saline with Tween-80 90 % of control and 93 % of control | dose: 200.0 mg/kg/injection, schedule: Q01DX009 (ip), vehicle: saline with Tween-80 93 % of control

Reference: PubChem BioAssay AID330 (DTP/NCI, 2004)
